Results as given in patent US20120238549A1, “Nuclear Hormone Receptor Modulators” (ABBOTT LABORATORIES, priority 2011, published 2012).

These compounds were tested against T1, Glucocorticoid Receptor (GR) (Homo sapiens, UniProt P04150) (assay: GR Florescence Polarization Assay (PolarScreen Glucocorticoid Receptor Competitor Assay, Red)). Settings: Fluorescense polarization binding ranges; competition with fluorescent glucocorticoid, incubated overnight at 4° C.
T1 construct: purchased Invitrogen P2893
T1 sequence (P04150 1-777): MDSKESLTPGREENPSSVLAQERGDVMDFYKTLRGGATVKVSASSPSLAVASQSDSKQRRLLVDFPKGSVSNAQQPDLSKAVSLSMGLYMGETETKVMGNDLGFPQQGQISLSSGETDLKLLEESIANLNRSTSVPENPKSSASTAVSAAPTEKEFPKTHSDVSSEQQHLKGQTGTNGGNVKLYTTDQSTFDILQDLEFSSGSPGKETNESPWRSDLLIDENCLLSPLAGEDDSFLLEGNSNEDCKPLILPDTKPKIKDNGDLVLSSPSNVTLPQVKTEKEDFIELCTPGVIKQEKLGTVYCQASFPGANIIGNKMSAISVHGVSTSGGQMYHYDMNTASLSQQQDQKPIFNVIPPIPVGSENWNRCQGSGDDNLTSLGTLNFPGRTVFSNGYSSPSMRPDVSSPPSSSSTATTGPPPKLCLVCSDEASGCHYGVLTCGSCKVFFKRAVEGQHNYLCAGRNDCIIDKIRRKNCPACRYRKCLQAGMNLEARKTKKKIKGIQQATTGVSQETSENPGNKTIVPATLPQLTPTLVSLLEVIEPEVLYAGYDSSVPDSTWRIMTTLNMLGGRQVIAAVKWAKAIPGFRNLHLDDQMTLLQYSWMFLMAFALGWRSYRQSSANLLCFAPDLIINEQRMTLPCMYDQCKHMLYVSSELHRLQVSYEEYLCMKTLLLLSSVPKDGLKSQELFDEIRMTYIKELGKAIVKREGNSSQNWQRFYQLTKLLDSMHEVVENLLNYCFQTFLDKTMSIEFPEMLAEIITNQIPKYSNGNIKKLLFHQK
In short: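 Competitive fluorescence polarization using fluorescent glucocorticoid tracer and human GR in kit buffer. Compounds serially diluted 1:4 in DMSO, incubated with tracer and GR overnight at 4 °C before polarization read.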

| SMILES | IC50 [nM] |
| --- | --- |
| CC[C@@]1(O)CC[C@@]2(Cc3ccccc3)c3ccc(C(=O)Nc4cccnc4C)cc3COC[C@H]2C1 [Example 111, (7aS,9R,11aS)-11a-Benzyl-9-ethyl-9-hydroxy-N-(2-methylpyridin-3-yl)-5,7,7a,8,9,10,11,11a-octahydrodibenzo[c,e]oxepine-3-carboxamide] | < 100 |
| CC[C@@]1(O)CC[C@@]2(Cc3ccccc3)c3ccc(C(=O)Nc4cccnc4C)cc3C(=O)OC[C@H]2C1 [Example 112, (7aS,9R,11aS)-11a-Benzyl-9-ethyl-9-hydroxy-N-(2-methylpyridin-3-yl)-5-oxo-5,7,7a,8,9,10,11,11a-octahydrodibenzo[c,e]oxepine-3-carboxamide] | 100 to 1000 |
| CC[C@@]1(O)CC[C@@]2(Cc3ccccc3)c3ccc(C(=O)Nc4cccnc4C)cc3C(=O)N(C)C[C@@H]2C1 [Example 113, (3R,4aR,11bS)-11b-Benzyl-3-ethyl-3-hydroxy-6-methyl-N-(2-methylpyridin-3-yl)-7-oxo-2,3,4,4a,5,6,7,11b-octahydro-1H-dibenzo[c,e]azepine-9-carboxamide] | 1000 to 10000 |
| CC[C@@]1(O)CC[C@@]2(Cc3ccccc3)c3ccc(C(=O)Nc4cccnc4C)cc3CC(=O)C[C@H]2C1 [Example 114, (7aR,9R,11aS)-11a-Benzyl-9-ethyl-9-hydroxy-6-oxo-6,7,7a,8,9,10,11,11a-octahydro-5H-dibenzo[a,c]cycloheptene-3-carboxylic acid (2-methyl-pyridin-3-yl)-amide] | < 100 |
| Cc1ncccc1NC(=O)c1ccc2c(c1)C(=O)OC[C@@H]1C[C@@](O)(C(F)(F)F)CC[C@@]21Cc1ccccc1 [Example 115, (7aR,9R,11aS)-11a-Benzyl-9-hydroxy-N-(2-methylpyridin-3-yl)-5-oxo-9-(trifluoromethyl)-5,7,7a,8,9,10,11,11a-octahydrodibenzo[c,e]oxepine-3-carboxamide] | 100 to 1000 |
| Cc1ncccc1NC(=O)c1ccc2c(c1)COC[C@@H]1C[C@@](O)(C(F)(F)F)CC[C@@]21Cc1ccccc1 [Example 116, (7aR,9R,11aS)-11a-Benzyl-9-hydroxy-N-(2-methylpyridin-3-yl)-9-(trifluoromethyl)-5,7,7a,8,9,10,11,11a-octahydrodibenzo[c,e]oxepine-3-carboxamide] | 100 to 1000 |
| Cc1ncccc1NC(=O)c1ccc2c(c1)CN(C)C[C@@H]1C[C@@](O)(C(F)(F)F)CC[C@@]21Cc1ccccc1 [Example 117, (3R,4aR,11bS)-11b-Benzyl-3-hydroxy-6-methyl-N-(2-methylpyridin-3-yl)-3-(trifluoromethyl)-2,3,4,4a,5,6,7,11b-octahydro-1H-dibenzo[c,e]azepine-9-carboxamide] | 100 to 1000 |
| Cc1ncccc1NC(=O)c1ccc2c(c1)C(=O)CC[C@@H]1C[C@@](O)(C(F)(F)F)CC[C@@]21Cc1ccccc1 [Example 118, (7aR,9R,11aS)-11a-Benzyl-9-hydroxy-5-oxo-9-trifluoromethyl-6,7,7a,8,9,10,11,11a-octahydro-5H-dibenzo[a,c]cycloheptene-3-carboxylic acid (2-methyl-pyridin-3-yl)-amide] | < 100 |
| CC[C@@]1(O)CC[C@@]2(Cc3ccccc3)c3ccc(C(=O)Nc4ccccc4N)cc3CCC[C@H]2C1 [Example 126, (7aS,9R,11aS)-11a-Benzyl-9-ethyl-9-hydroxy-6,7,7a,8,9,10,11,11a-octahydro-5H-dibenzo[a,c]cycloheptene-3-carboxylic acid (2-amino-phenyl)-amide] | < 100 |
| CC[C@@]1(O)CC[C@@]2(Cc3ccccc3)c3ccc(-c4nc5ccccc5[nH]4)cc3CCC[C@H]2C1 [Example 127, (3R,4aS,11bS)-9-(1H-benzoimidazol-2-yl)-11b-benzyl-3-ethyl-2,3,4,4a,5,6,7,11b-octahydro-1H-dibenzo[a,c]cyclohepten-3-ol] | 100 to 1000 |
